Tests used:
Tn5 = Tn5 (Escherichia coli, UniProt Q46731, E54K/L372P); settings: 50 mM EDTA, HT1080 cells
Method: HT1080 cells and HeLa cells were grown on secureSlip cell culture system (0515073, GRACE BIO-LABS) until 80-90% confluent and fixed with 1% formaldehyde (Sigma-Aldrich) for 10 min at room temperature. GM12878 cells were fixed with 1% formaldehyde (Sigma) 10 min at room temperature and centrifuged on the glass slide with Cytospin, 1000 rpm for 5 min, 30-50,000 cells per slide.
ATAC-see: After fixation, the cells (either growing on slide or centrifuged on glass slide with cytospin) were permeabilized with lysis buffer (10 mM Tris-Cl, pH 7.4, 10 mM NaCl, 3 mM MgCl2, 0.01% Igepal CA-630) for 10 min at room temperature. After the permeabilization, the slides were rinsed in PBS twice, and put in humid chamber box at 37° C. The transposase mixture solution (25 μl 2× TD buffer, final concentration of 100 nM Tn5-ATTO-59ON, adding dH2O up to 50 μl) was added on the slide and incubated for 30 min at 37° C. […] After washing, slides were mounted using Vectashield with DAPI (H-1200, Vector labs) for imaging with Leica SP8 or Zeiss 700 or for additional co-staining with Lamin B1 or mitochondria (see the materials and methods above).

human neutrophils = experiment: NETosis of PMA-activated primary human neutrophils (ATAC-see / ATAC-seq); assay type: cell-based
Method: Human neutrophils were isolated from healthy donor's blood following as described under a Stanford University IRB-approved protocol^23. In brief, 7 ml of heparinized blood was layered on 7 ml Histopaque 1119 (11191-100ML, Sigma Aldrich) in a 15 ml Falcon tube, and the mixture was spun 20 min at 800× g at room temperature. The interphase (lymphocytes and monocytes) was discarded and the granulocyte-rich layer of Histopaque 1119 (diffuse, red phase above RBC pellet) was collected in a new tube. 5 ml of cells were washed with 10 ml of medium (HBSS+), and spun 10 min at 200× g at room temperature. The cells were resuspended in 3 ml DPBS with 0.5% human serum albumin (101-15-50, Lee BioSolutions), and the cell suspension was layered on 10 ml of a discontinuous Percoll gradient (85% to 65% Percoll) and spun 20 min at 800×g at room temperature. The interphase between 70% and 75% Percoll layers were collected in a new 15 ml tube. The tube was added with DPBS with 0.5% human serum albumin up to 15 ml and spun for 10 min at 200× g at room temperature. The cell pellet was resuspended in RPMI-HEPES (10 mM) at 1.5×10^6 cells per ml for neutrophil activation.
Human neutrophils were stimulated by Phorbol myristate acetate (PMA) as described^23. Briefly, the purified neutrophils were suspended in 3 ml RPMI 1640 with final concentration of 1.5×10^6 per ml in loosen cap 15 ml falcon tube, and incubated in cell culture CO2 incubator (5% CO2, 37° C.) with final concentration of 30 nM PMA for 1 h, 3 h, and 5 h respectively. After 2 h of simulation, protease inhibitor cocktail was added at a 1:200 dilution to both control and simulated tubes. At the respective time points, neutrophils were fixed with 1% formaldehyde for 10 min at room temperature, and fixed neutrophil cells spun down on the glass slide with cytospin 1000 rpm 5 min at room temperature for ATAC-see or immuno-staining.
The PAD4 inhibition was performed as previously described^25.
80% confluent Human HT1080 cells (30-50,000 cells) grown in 8 well chamber slides were fixed with 1% formaldehyde (Sigma, USA) for 10 min and quenched with 0.125 M glycine for 5 min at room temperature. After fixation, slides were put in PBS at 4° C. […] The 50 μl transposase reaction solution was added onto the slide, and the cells on slide were incubated at 37° C. for 30 min. For the imaging and sequencing, slides were mounted using Vectorshield and images were taken with a Zeiss LSM 700. After imaging, the coverslip was removed and cells were lysed with 50 μl of 50 mM Tris-Cl, 1 mM EDTA, 1% SDS, 0.2 M NaCl 5 min on slide at room temperature. The cell lysis was carefully transferred to 1.5 ml eppendorf tube. The glass slide was washed with 50 μl of the same buffer another 3 times and washing solutions were transferred to the same tube carefully. […]

For `O=C(O)CN(CCN(CC(=O)O)CC(=O)O)CC(=O)O` [EDTA], the “ATAC-see signal, % of control” value (Tn5) was 2.69%±0.04.

For `CCCCCCCCCCCCCC(=O)O[C@@H]1[C@@H](C)[C@@]2(O)[C@@H](C=C(CO)C[C@]3(O)C(=O)C(C)=C[C@@H]23)[C@@H]2C(C)(C)[C@]12OC(C)=O` [PMA, Phorbol myristate acetate], the “neutrophils that have released their chromatin into the extracellular space” value (human neutrophils; 30 nM PMA, after 3 hrs of stimulation) was 49.7% and the “neutrophils that have released NETs” value (human neutrophils; 30 nM PMA, after 5 hrs of stimulation) was 59.7%.

With `NC(=O)[C@H](CCCN=C(N)CCl)NC(=O)c1ccccc1` [Cl-amidine] the NETosis (human neutrophils; 200 μM Cl-amidine 30 min before PMA stimulation) was “inhibited” and the “release of free DNA from mononucleosomes” value (human neutrophils; PAD4i-treated, after 5 hrs of neutrophil activation) was “fail to release free DNA from mononucleosomes”.

— patent US11680253B2, “Transposase-mediated imaging of the accessible genome” (The Board of Trustees of the Leland Stanford Junior …, priority 2016, dated 2023)
